As usually defined, the IC50 is the concentration that inhibits the measured activity by half. Read a high IC50 as weaker potency in that assay. As a reminder, the EC50 is the concentration at which the effect is half-maximal. Usually GI50 stands for the concentration that inhibits growth by half.

The values that follow come from ChEMBL document CHEMBL4819002, “Design, synthesis, evaluation, and SAR of 4-phenylindoline derivatives, a novel class of small-molecule inhibitors of the programmed cell death-1/ programmed cell death-ligand 1 (PD-1/PD-L1) interaction” (Eur J Med Chem, 2021).

The source made the active and inactive calls. The calls are words filed in the database; no cut-off is given here. Some results are limits rather than exact numbers.

The target of assay [1] is T1, Programmed cell death protein 1/Programmed cell death 1 ligand 1 (Homo sapiens, UniProt Q9NZQ7). In words: Inhibition of PD1 (unknown origin)/PDL1 (unknown origin) protein-protein interaction by HTRF assay. It counts as protein-complex assay. Background: Time-resolved FRET reads energy transfer from a long-lived donor to a nearby acceptor.
The target in assay [2] is T2, Programmed cell death protein 1/Programmed cell death 1 ligand 1 (Homo sapiens) (UniProt Q15116+Q9NZQ7). The assay can be described thus: Inhibition of PD-1/PD-L1 interaction in CHO cells expressing PD-Ll/TCR cocultured with human Jurkat cells expressing PD-1 assessed as maximum relative luminescence intensity value at > 3.3 uM incubated for 6 hrs by luciferase reporter gene assay. The format is cell-based. The note with it: dose microM >3.3, time 6.0 hrs.

In assay [3] the target is T1, Programmed cell death protein 1/Programmed cell death 1 ligand 1. The assay can be described thus: Inhibition of PD-1/PD-L1 interaction in CHO cells expressing PD-Ll/TCR cocultured with human Jurkat cells expressing PD-1 assessed as activation of effector Jurkat T cells incubated for 6 hrs by luciferase reporter gene assay. It counts as cell-based. On the technique in general: In a reporter assay the amount or activity of a reporter protein is the signal.

Assay [4] is described as follows: Cytotoxicity against CHO cells expressing PD-Ll /TCR cocultured with human Jurkat cells expressing PD-1 measured after 24 hrs by Cell Titer-Glo based luminescent cell viability assay. It counts as functional. For orientation: ATP-based viability assays read luminescence as a measure of living cells.
In assay [5] the target is T2, Programmed cell death protein 1/Programmed cell death 1 ligand 1 (Homo sapiens). In words: Inhibition of PD-1/PD-L1 interaction in CHO cells expressing PD-Ll/TCR cocultured with human Jurkat cells expressing PD-1 assessed as maximum relative luminescence intensity value upto 10 uM incubated for 6 hrs by luciferase reporter gene assay. Conditions: dose microM <=10, time 6.0 hrs. It counts as cell-based.

Assay [6] has the same target. The assay can be described thus: Inhibition of PD-1/PD-L1 interaction in CHO cells expressing PD-Ll/TCR cocultured with human Jurkat cells expressing PD-1 assessed as maximum relative luminescence intensity value incubated for 6 hrs by luciferase reporter gene assay. It counts as cell-based.

T1 sequence (Q15116 whole entry): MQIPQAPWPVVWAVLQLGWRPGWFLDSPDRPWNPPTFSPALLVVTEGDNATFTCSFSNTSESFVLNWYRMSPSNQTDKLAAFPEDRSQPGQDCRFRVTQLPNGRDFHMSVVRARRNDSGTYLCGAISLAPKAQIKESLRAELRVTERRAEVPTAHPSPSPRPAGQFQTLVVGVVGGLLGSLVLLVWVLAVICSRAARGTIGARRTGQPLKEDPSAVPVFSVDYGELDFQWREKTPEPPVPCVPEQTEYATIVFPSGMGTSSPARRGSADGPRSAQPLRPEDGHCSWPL
T1 sequence (Q9NZQ7 whole entry): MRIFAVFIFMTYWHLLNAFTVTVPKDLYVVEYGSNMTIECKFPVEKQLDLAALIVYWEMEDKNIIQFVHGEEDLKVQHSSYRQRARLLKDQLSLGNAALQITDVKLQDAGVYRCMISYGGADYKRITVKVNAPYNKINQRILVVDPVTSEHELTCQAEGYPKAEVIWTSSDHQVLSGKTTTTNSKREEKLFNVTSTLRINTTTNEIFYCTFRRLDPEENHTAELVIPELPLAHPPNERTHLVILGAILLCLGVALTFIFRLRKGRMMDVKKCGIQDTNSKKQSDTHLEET

As for `CC(=O)NCCNCc1cc(Cl)c(OCc2cccc(-c3cccc4c3CCN4CCCN3CCC(O)CC3)c2C)cc1OCc1cccc(C#N)c1`, half-maximal inhibition in assay [1] (IC50) was put at 0.058 µM.
The same measure, in the same setting: in the case of `CC(=O)NCCNCc1cc(Cl)c(OCc2cccc(-c3cccc4c3CCN4CCN3CCC(O)CC3)c2C)cc1OCc1cccc(C#N)c1` it was 0.322 µM; in that of `COCCCN1CCc2c(-c3cccc(COc4cc(OCc5cccc(C#N)c5)c(CNCCNC(C)=O)cc4Cl)c3C)cccc21`, 0.905 µM.
On the same count and under the same terms, the figure for `Cc1c(COc2cc(OCc3cncc(C#N)c3)c(CNC(CO)CO)cc2Cl)cccc1-c1cccc2c1CCN2CCCN1CCC(O)CC1` is 0.038 µM.
The same measure, in the same setting: in the case of `CCN1CCc2c(-c3cccc(COc4cc(OCc5cccc(C#N)c5)c(CNCCNC(C)=O)cc4Cl)c3C)cccc21` it was 0.743 µM; in that of `CC(=O)NCCNCc1cc(Cl)c(OCc2cccc(-c3cccc4c3CCN4CCCN3CCC(O)C3)c2C)cc1OCc1cccc(C#N)c1` (stereo unspecified), 0.063 µM.
In assay [1], `CC(=O)NCCNCc1cc(Cl)c(OCc2cccc(-c3cccc4c3CCN4CCCN3CCOCC3)c2C)cc1OCc1cccc(C#N)c1` came in with an IC50 of 0.185 µM.
The same measure, in the same setting: in the case of `CC(=O)NCCNCc1cc(Cl)c(OCc2cccc(-c3cccc4c3CCN4C)c2C)cc1OCc1cccc(C#N)c1` it was 0.878 µM; in that of `Cc1c(COc2cc(OCc3cncc(C#N)c3)c(CNCCO)cc2Cl)cccc1-c1cccc2c1CCN2CCCN1CCC(O)CC1`, 0.031 µM.
`CC(=O)NCCNCc1cc(Cl)c(OCc2cccc(-c3ccc4c(c3)OCCO4)c2C)cc1OCc1cccc(C#N)c1`: the result in assay [2] was inactive. In assay [1], the IC50 was 0.04 µM. Further, the EC50 in assay [3] is greater than 3.3 µM. Moreover, in assay [4], halving of growth (GI50) required 6.3 µM.
Regarding `CC(=O)NCCNCc1cc(Cl)c(OCc2cccc(-c3cccc4c3CCN4CCCN3CCCCC3)c2C)cc1OCc1cccc(C#N)c1`, the IC50 in assay [1] was found to be 0.197 µM.
The same measure, in the same setting: the figure for `CCN(CC)CCCN1CCc2c(-c3cccc(COc4cc(OCc5cccc(C#N)c5)c(CNCCNC(C)=O)cc4Cl)c3C)cccc21` is 0.114 µM.
For the compound `CC(=O)NCCNCc1cc(Cl)c(OCc2cccc(-c3cccc4c3CCN4CCCN3CCC(O)CC3)c2C)cc1OCc1ccccc1`, the IC50 in assay [1] turned out to be 0.446 µM. Against the preceding compound, the IC50 is about 3.9-fold higher.
Compound `Cc1c(COc2cc(OCc3cncc(C#N)c3)c(CN[C@@H](CO)C(=O)O)cc2Cl)cccc1-c1cccc2c1CCN2CCCN1CCC(O)CC1` gave an IC50 in assay [1] of 0.012 µM. Also, in assay [5], the RLU came to 1710. For the same compound, the Activity entry in assay [6] was “Dose-Dependent Effect”. For the same compound, the EC50 in assay [3] worked out at 2.9 µM. The compound further had a 50% growth inhibitory concentration (GI50) in assay [4] greater than 20 µM.
The compound `CC(=O)NCCNCc1cc(Cl)c(OCc2cccc(-c3cccc4c3CCN4CCCN3CCC(F)CC3)c2C)cc1OCc1cccc(C#N)c1` gave an IC50 in assay [1] of 0.878 µM.
In assay [1], `CC(=O)NCCNCc1cc(Cl)c(OCc2cccc(-c3cccc4c3CCN4CCCN3CCCC3)c2C)cc1OCc1cccc(C#N)c1` gave a concentration for half-maximal inhibition (IC50) of 0.077 µM.
Still for that read-out and setting: in the case of `CC(=O)NCCNCc1cc(Cl)c(OCc2cccc(-c3cccc4c3CCN4CCCN3CCC3)c2C)cc1OCc1cccc(C#N)c1` it was 0.098 µM; in that of `CC(=O)NCCNCc1cc(Cl)c(OCc2cccc(-c3cccc4c3CCN4CCCN3CCC(F)C3)c2C)cc1OCc1cccc(C#N)c1` (stereo unspecified), 0.202 µM; in that of `CCCN1CCc2c(-c3cccc(COc4cc(OCc5cccc(C#N)c5)c(CNCCNC(C)=O)cc4Cl)c3C)cccc21`, 1.73 µM.
Same read-out and setting: the figure for `CC(=O)NCCNCc1cc(Cl)c(OCc2cccc(-c3cccc4c3CCN4CCCN3CCC(O)CC3)c2C)cc1OCC1CCCCC1` is 1.13 µM.
The same measure, in the same setting: in the case of `COC(=O)[C@H](CO)NCc1cc(Cl)c(OCc2cccc(-c3cccc4c3CCN4CCCN3CCC(O)CC3)c2C)cc1OCc1cncc(C#N)c1` it was 0.041 µM; in that of `CC(=O)NCCNCc1cc(Cl)c(OCc2cccc(-c3cccc4c3CCN4CCCn3cccc3)c2C)cc1OCc1cccc(C#N)c1`, 2.47 µM; in that of `CC(=O)NCCNCc1cc(Cl)c(OCc2cccc(-c3cccc4c3CCN4)c2C)cc1OCc1cccc(C#N)c1`, 1.36 µM.
Regarding `CC(=O)NCCNCc1cc(Cl)c(OCc2cccc(-c3cccc4c3CCN4CCCN3CCC(O)CC3)c2C)cc1OCc1cccnc1`, in assay [1], the IC50 worked out at 0.079 µM.
For the compound `CC(=O)NCCNCc1cc(Cl)c(OCc2cccc(-c3cccc4c3CCN4CCCN3CCC(O)CC3)c2C)cc1OCc1cncc(C#N)c1`, half-maximal inhibition in assay [1] (IC50) was put at 0.017 µM. For the same compound, in assay [5], the RLU stood at 1910. Further, in assay [6], the Activity entry is “Dose-Dependent Effect”. The 50% effective concentration (EC50) in assay [3] was 0.43 µM. Growth in assay [4] was halved (GI50) at 16.9 µM.
